Assay results as given in ChEMBL document CHEMBL4507276 (2021).

How the values were obtained:
Conditions in all cases: Compound concentration 1000.0 nM
[1] = molecular target: T1, Ephrin type-B receptor 4 (Homo sapiens) (UniProt P54760)
T1 sequence (whole entry): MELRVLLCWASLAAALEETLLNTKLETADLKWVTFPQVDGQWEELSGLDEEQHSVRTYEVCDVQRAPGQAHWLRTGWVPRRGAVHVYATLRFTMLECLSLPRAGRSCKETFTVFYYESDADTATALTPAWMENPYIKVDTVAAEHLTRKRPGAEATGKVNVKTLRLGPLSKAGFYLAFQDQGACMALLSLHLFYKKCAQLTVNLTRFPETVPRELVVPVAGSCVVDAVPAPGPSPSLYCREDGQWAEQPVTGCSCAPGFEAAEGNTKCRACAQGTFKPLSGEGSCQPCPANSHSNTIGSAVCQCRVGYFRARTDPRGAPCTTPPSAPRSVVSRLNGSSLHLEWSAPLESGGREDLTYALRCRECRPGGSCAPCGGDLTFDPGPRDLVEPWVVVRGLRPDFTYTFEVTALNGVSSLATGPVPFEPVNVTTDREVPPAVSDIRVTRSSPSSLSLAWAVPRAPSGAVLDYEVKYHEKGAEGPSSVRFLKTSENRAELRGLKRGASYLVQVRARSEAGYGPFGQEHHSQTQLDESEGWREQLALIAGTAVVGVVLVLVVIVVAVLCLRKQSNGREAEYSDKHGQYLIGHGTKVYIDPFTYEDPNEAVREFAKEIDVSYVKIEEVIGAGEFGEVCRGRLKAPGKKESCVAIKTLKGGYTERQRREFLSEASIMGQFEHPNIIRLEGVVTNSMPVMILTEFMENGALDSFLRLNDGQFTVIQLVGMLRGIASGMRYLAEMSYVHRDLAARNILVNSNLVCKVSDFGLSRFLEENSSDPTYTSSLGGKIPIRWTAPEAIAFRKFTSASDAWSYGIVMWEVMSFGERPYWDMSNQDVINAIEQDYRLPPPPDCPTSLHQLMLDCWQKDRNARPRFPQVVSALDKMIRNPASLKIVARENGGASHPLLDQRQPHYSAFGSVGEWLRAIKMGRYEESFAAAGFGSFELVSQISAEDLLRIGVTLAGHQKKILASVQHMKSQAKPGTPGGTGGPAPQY

[2] = tested on: Tyrosine-protein kinase ABL1 (Homo sapiens), P00519 [H396P]
[3] = molecular target: Dual specificity protein kinase CLK4 (Homo sapiens) (UniProt Q9HAZ1)
[4] = tested on: Mast/stem cell growth factor receptor Kit (Homo sapiens), P10721 [D816V]
[5] = tested on: Phosphatidylinositol 4,5-bisphosphate 3-kinase catalytic subunit alpha isoform (Homo sapiens), P42336 [E542K]
[6] = tested on: Epidermal growth factor receptor (Homo sapiens), P00533 [G719S]
[7] = molecular target: Cyclin-dependent kinase 14 (Homo sapiens) (UniProt O94921)
[8] = tested on: Proto-oncogene tyrosine-protein kinase receptor Ret (Homo sapiens), P07949 [V804L]
[9] = molecular target: Mitogen-activated protein kinase 15 (Homo sapiens) (UniProt Q8TD08)
[10] = molecular target: Serine/threonine-protein kinase TAO1 (Homo sapiens) (UniProt Q7L7X3)
[11] = molecular target: Serine/threonine-protein kinase PAK 5 (Homo sapiens) (UniProt Q9P286)
[12] = molecular target: Calcium/calmodulin-dependent protein kinase type II subunit delta (Homo sapiens) (UniProt Q13557)
[13] = molecular target: Serine/threonine-protein kinase PAK 3 (Homo sapiens) (UniProt O75914)
[14] = molecular target: T2, Serine/threonine-protein kinase 17A (Homo sapiens) (UniProt Q9UEE5)
T2 sequence (whole entry): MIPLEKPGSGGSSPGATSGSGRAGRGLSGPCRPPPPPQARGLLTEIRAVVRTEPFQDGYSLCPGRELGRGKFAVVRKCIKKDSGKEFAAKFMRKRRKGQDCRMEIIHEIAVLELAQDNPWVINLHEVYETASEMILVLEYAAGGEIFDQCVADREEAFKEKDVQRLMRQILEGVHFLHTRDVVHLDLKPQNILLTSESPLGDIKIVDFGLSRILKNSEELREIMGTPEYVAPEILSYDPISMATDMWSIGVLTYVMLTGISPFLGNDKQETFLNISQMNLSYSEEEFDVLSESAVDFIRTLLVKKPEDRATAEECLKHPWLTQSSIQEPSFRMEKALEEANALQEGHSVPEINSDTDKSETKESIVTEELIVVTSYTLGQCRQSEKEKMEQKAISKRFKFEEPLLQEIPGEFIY

[15] = molecular target: Serine/threonine-protein kinase RIO3 (Homo sapiens) (UniProt O14730)
[16] = molecular target: Serine/threonine-protein kinase OSR1 (Homo sapiens) (UniProt O95747)
[17] = tested on: Epidermal growth factor receptor (Homo sapiens), P00533 [L858R,T790M]
[18] = molecular target: T3, Serine/threonine-protein kinase Sgk1 (Homo sapiens) (UniProt O00141)
T3 sequence (whole entry): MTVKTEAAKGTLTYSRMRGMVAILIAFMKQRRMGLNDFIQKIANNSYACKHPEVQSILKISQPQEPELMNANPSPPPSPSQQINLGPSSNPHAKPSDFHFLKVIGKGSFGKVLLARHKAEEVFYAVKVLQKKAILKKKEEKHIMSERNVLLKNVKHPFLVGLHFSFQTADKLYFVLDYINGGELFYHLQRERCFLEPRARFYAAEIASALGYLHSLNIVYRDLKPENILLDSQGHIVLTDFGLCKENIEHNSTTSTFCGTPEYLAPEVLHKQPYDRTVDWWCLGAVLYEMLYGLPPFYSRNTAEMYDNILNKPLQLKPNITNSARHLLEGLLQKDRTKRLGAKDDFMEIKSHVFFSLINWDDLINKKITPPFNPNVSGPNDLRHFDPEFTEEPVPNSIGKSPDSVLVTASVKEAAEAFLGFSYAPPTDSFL

[19] = molecular target: Vascular endothelial growth factor receptor 1 (Homo sapiens) (UniProt P17948)
[20] = molecular target: Death-associated protein kinase 2 (Homo sapiens) (UniProt Q9UIK4)

Measured: residual activity

Sequence of Serine/threonine-protein kinase PAK 5 (Homo sapiens) (Q9P286 whole entry, looked up): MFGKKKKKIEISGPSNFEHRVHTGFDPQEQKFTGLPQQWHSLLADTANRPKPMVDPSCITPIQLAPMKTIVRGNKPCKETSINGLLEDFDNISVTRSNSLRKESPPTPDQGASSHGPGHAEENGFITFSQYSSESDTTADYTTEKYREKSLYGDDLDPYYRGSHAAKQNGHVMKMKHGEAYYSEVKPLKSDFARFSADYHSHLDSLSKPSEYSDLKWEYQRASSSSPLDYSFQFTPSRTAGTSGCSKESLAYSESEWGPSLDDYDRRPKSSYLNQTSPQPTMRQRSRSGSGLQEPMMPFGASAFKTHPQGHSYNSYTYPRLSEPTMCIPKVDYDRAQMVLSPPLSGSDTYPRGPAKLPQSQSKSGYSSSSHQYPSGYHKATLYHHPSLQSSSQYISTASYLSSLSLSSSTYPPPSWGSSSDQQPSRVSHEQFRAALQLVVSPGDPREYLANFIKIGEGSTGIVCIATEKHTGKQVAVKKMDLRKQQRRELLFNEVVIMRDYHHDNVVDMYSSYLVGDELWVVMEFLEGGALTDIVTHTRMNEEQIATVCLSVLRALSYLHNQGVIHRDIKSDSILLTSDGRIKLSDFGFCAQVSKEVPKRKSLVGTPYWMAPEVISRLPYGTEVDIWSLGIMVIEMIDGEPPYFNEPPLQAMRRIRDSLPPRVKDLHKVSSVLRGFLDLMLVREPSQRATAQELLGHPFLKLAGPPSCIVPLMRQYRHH
Sequence of Phosphatidylinositol 4,5-bisphosphate 3-kinase catalytic subunit alpha isoform (Homo sapiens), P42336 [E542K] (P42336 whole entry E542K, canonical isoform): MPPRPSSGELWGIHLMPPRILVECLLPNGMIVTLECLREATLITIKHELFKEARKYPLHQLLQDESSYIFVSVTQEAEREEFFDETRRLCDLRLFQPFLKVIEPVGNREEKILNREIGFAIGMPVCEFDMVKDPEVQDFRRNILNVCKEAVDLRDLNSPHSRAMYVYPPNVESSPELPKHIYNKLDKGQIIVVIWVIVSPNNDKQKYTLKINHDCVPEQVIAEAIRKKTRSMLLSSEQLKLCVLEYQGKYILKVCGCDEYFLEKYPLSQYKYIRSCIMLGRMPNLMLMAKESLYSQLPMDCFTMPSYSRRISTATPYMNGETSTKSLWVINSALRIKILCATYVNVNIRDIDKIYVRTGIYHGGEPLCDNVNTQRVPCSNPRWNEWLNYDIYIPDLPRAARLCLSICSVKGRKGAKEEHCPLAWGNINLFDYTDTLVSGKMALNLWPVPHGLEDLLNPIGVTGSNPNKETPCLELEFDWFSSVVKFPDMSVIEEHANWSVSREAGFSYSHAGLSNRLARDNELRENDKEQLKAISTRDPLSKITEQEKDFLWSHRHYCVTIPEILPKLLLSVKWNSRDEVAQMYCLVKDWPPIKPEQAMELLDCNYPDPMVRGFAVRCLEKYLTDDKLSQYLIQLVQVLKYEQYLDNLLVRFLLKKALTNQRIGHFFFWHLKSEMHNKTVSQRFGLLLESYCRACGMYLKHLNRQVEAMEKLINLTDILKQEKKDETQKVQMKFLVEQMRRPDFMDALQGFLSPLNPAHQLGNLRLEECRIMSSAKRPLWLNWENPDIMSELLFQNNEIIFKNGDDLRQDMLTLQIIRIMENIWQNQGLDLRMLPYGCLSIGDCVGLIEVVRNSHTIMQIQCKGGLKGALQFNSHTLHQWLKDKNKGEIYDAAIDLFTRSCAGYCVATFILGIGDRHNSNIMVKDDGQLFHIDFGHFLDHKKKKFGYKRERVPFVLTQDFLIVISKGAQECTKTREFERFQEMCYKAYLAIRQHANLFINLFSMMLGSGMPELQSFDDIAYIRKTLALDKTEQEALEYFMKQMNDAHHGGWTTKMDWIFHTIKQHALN
Sequence of Calcium/calmodulin-dependent protein kinase type II subunit delta (Homo sapiens) (Q13557 whole entry): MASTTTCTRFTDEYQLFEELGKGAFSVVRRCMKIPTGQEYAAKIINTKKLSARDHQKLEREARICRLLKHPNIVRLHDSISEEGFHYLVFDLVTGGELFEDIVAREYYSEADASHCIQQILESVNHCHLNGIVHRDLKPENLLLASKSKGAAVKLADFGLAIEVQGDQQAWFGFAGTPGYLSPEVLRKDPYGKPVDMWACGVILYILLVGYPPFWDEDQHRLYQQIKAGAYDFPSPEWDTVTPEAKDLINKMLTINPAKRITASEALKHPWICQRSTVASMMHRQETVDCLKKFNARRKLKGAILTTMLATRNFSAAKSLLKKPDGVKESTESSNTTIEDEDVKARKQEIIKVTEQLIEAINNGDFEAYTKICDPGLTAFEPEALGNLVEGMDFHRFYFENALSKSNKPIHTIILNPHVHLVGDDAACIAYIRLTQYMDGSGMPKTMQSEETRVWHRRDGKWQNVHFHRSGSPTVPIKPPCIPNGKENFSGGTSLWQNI
Sequence of Mitogen-activated protein kinase 15 (Homo sapiens) (Q8TD08 whole entry): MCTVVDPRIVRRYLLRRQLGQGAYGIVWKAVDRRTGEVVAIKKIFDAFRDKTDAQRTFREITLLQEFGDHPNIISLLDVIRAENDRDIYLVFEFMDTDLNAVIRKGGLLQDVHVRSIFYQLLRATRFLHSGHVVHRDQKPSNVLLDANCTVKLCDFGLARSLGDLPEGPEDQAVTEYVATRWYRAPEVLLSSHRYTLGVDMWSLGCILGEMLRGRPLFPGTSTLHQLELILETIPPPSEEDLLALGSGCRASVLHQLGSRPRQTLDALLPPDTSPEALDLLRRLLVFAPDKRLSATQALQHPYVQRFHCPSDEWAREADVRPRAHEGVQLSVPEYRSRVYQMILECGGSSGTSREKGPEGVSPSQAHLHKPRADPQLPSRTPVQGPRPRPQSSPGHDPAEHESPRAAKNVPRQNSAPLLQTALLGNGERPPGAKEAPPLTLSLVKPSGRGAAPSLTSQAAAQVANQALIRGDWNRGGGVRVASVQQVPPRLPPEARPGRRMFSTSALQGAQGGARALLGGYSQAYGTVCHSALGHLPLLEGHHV
Sequence of Serine/threonine-protein kinase TAO1 (Homo sapiens) (Q7L7X3 whole entry): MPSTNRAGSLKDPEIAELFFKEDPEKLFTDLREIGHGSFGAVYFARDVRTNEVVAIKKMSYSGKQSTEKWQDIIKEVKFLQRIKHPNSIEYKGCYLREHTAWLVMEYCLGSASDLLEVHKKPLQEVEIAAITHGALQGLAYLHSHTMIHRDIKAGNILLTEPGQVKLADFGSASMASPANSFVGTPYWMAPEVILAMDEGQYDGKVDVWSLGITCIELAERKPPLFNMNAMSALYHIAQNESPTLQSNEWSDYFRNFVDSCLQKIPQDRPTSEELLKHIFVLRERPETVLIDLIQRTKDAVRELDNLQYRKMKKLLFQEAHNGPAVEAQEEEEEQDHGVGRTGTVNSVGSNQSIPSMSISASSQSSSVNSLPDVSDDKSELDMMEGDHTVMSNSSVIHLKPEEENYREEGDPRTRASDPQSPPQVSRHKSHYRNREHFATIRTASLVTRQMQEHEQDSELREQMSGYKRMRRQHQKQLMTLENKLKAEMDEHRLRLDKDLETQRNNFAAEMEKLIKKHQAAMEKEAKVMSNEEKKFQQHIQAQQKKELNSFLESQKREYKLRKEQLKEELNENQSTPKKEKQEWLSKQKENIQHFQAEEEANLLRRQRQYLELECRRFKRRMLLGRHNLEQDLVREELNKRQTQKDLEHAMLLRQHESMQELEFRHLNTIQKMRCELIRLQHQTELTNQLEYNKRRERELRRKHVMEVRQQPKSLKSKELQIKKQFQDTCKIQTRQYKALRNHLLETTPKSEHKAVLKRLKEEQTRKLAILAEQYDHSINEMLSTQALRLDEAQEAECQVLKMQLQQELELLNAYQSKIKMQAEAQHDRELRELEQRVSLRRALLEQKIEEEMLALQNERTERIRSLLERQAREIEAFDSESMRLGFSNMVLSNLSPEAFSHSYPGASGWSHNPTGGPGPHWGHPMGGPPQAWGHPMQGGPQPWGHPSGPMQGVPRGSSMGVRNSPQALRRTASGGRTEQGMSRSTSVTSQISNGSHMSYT
Sequence of Cyclin-dependent kinase 14 (Homo sapiens) (O94921 whole entry): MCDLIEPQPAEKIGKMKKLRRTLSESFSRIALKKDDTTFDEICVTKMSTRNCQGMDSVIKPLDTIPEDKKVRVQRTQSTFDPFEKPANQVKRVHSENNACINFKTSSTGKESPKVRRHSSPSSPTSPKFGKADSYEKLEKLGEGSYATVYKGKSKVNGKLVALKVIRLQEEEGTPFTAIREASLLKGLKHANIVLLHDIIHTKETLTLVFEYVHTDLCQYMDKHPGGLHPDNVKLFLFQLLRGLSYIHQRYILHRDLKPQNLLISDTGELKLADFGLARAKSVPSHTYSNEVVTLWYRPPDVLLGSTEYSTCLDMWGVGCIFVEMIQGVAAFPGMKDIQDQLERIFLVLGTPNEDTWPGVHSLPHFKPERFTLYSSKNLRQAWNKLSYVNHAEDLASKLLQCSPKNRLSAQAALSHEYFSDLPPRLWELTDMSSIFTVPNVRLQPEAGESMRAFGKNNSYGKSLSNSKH
Sequence of Serine/threonine-protein kinase OSR1 (Homo sapiens) (O95747 2-527 limits assumed): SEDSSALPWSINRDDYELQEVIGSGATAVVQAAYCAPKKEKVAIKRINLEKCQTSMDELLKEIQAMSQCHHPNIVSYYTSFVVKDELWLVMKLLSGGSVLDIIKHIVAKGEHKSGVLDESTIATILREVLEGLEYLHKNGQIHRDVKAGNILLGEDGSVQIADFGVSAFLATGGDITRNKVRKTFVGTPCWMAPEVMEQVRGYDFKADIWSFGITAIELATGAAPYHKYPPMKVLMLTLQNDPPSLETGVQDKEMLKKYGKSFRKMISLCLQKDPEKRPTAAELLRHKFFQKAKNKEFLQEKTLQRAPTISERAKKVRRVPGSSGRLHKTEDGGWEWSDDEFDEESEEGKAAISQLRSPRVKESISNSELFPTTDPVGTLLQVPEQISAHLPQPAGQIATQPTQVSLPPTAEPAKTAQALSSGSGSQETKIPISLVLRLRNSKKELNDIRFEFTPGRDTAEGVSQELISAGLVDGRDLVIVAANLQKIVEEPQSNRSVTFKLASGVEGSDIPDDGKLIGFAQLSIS

CN(C)C(=O)Cn1cc(-c2nc(C3(c4ccc(-c5cnc(N)nc5)cc4)CC3)no2)cn1 [BI 0153]
inactive: [1] 100% | [2] 100% | [3] 89% | [4] 92% | [5] 76% | [6] 100% | [7] 100% | [8] 100% | [9] 96% | [10] 86% | [11] 88% | [12] 99% | [13] 82% | [14] 100% | [15] 89% | [16] 82% | [17] 97% | [18] 96% | [19] 100% | [20] 86%

CN(C)C(=O)Cn1cc(-c2nc([C@@](C)(c3ccc(-c4cnc(N)nc4)cc3)C3CC3)no2)cn1 [BI 665915]
inactive: [1] 100% | [2] 76% | [3] 99% | [4] 94% | [5] 79% | [6] 98% | [7] 99% | [8] 93% | [9] 91% | [10] 75% | [11] 100% | [12] 100% | [13] 87% | [14] 100% | [15] 100% | [16] 86% | [17] 93% | [18] 91% | [19] 100% | [20] 100%
